The text below walks through data of ChEMBL document CHEMBL3616397, “Voltage-Gated Sodium Channels: Structure, Function, Pharmacology, and Clinical Indications” (J Med Chem, 2015).

pIC50, pKd: −log10 of the molar value. Where only a bound is given, the exact number is not on record here.

As usually defined, the LD50 is the dose at which mortality reaches 50%. As a reminder, the pIC50 is the IC50 on a negative log10 scale, so that one unit is a factor of ten. A lower pIC50 goes with a large IC50. As a reminder, the pKd is the Kd on a negative log10 scale, so that one unit is a factor of ten. The term inhibition denotes the change of the read-out against control, counted positive when it falls. Higher therefore signals strong suppression.

Data set [1] can be described thus: Toxicity in mouse. To be noted: in vivo. It counts as organism-based.
Data set [2] addresses T1, Sodium channel protein type 9 subunit alpha (Homo sapiens, UniProt Q15858). As to the kind of experiment: Inhibition of human NaV1.7 channel expressed in HEK cells by patch clamp electrophysiology assay. It counts as cell-based, HEK293. (In general: The patch-clamp technique gives a direct electrical read-out from membranes.)
Data set [3] has as its target T1, Sodium channel protein type 9 subunit alpha. As to the kind of experiment: Inhibition of human NaV1.7 channel expressed in HEK293 cells treated for 120 secs by QPatch assay. It is filed as cell-based.
For data set [4], the target named is Sodium channel protein type 10 subunit alpha (Homo sapiens, UniProt Q9Y5Y9). As to the kind of experiment: Inhibition of human NaV1.8 channel by patch clamp electrophysiology assay.
Data set [5] addresses Sodium channel protein type 2 subunit alpha (Homo sapiens, UniProt Q99250). Put plainly: Inhibition of human NaV1.2 channel by patch clamp electrophysiology assay.
In data set [6] the target is Sodium channel protein type 8 subunit alpha (Homo sapiens, UniProt Q9UQD0). Put plainly: Inhibition of human NaV1.6 channel by patch clamp electrophysiology assay.
The target of data set [7] is T1, Sodium channel protein type 9 subunit alpha. As to the kind of experiment: Inhibition of human NaV1.7 channel expressed in HEK293 cells by patch clamp electrophysiology assay. It counts as cell-based.
The target in data set [8] is Sodium channel protein type 1 subunit alpha (Homo sapiens, UniProt P35498). Put plainly: Inhibition of human NaV1.1 channel by patch clamp electrophysiology assay.
Data set [9] deals with Sodium channel protein type 5 subunit alpha (Homo sapiens, UniProt Q14524). As to the kind of experiment: Inhibition of human NaV1.5 channel expressed in HEK293 cells by patch clamp electrophysiology assay. It counts as cell-based.
Sodium channel protein type 5 subunit alpha, sequence (Q14524 whole entry): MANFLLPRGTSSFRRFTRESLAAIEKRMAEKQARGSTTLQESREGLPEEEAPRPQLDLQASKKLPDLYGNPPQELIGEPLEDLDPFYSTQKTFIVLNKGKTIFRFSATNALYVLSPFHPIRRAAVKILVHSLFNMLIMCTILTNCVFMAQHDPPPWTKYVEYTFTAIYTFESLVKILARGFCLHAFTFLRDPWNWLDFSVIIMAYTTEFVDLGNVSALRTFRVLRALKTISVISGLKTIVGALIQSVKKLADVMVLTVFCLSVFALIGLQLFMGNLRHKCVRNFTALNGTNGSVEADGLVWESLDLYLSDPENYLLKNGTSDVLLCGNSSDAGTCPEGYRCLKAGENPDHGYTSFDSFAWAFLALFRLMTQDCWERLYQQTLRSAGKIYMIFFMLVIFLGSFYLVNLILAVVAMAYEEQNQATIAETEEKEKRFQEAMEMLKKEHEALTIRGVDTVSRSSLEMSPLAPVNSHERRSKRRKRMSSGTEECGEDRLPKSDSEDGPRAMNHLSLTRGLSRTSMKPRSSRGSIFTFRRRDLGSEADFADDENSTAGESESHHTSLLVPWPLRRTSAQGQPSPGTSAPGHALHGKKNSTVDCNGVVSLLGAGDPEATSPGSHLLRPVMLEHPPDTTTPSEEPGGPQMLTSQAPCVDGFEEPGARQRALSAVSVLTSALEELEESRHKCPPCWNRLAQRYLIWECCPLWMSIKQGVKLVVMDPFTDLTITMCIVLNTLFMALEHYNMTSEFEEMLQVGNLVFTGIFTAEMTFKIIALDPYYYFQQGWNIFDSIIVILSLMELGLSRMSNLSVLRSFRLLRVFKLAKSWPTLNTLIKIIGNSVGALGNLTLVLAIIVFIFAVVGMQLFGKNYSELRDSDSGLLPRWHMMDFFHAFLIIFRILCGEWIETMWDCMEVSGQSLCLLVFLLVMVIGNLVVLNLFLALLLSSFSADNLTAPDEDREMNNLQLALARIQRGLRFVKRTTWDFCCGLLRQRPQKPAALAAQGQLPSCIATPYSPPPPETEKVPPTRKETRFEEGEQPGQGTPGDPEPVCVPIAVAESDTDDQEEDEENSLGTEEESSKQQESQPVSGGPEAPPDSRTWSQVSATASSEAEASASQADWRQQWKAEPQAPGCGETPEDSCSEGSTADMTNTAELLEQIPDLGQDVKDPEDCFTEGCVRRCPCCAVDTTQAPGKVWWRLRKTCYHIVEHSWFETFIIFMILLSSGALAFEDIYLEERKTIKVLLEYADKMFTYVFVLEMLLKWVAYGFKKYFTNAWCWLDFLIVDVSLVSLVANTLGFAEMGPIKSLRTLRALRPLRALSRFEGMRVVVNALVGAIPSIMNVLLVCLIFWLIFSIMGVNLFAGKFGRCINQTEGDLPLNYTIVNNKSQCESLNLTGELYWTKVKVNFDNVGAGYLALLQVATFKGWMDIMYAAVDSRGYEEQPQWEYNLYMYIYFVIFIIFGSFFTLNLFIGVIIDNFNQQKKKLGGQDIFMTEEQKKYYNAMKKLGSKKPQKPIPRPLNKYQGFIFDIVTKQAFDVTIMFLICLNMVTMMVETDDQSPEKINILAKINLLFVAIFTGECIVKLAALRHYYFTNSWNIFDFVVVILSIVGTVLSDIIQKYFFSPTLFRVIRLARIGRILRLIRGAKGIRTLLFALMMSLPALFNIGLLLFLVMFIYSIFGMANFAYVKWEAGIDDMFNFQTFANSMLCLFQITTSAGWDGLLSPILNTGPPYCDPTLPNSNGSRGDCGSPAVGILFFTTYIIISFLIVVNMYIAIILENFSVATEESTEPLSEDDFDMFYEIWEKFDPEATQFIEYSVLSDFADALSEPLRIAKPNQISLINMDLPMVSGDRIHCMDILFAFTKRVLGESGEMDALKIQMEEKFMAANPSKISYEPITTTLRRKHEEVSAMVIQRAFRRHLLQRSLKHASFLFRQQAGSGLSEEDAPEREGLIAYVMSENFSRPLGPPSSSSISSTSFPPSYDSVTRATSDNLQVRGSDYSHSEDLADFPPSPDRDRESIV
For data set [10], the target named is Sodium channel protein type 3 subunit alpha (Homo sapiens, UniProt Q9NY46). Put plainly: Inhibition of human TTX-sensitive NaV1.3 channel expressed in HEK293 cells by patch clamp electrophysiology assay. It counts as cell-based.
In data set [11] the target is Sodium channel protein type 4 subunit alpha (Homo sapiens, UniProt P35499). As to the kind of experiment: Inhibition of human NaV1.4 channel by patch clamp electrophysiology assay.
Data set [12] has as its target Sodium channel protein type 8 subunit alpha (Mus musculus, UniProt Q9WTU3). As to the kind of experiment: Inhibition of mouse NaV1.6 channel by two-electrode voltage-clamp method. On the technique in general: Two-electrode voltage clamp holds a large cell at a set potential and records current.
Data set [13] is described as follows: Inhibition of mouse NaV1.2 channel by two-electrode voltage-clamp method.
Data set [14] deals with Sodium channel protein type 9 subunit alpha (Rattus norvegicus, UniProt O08562). Put plainly: Inhibition of rat NaV1.7 channel by two-electrode voltage-clamp method.
The target in data set [15] is Sodium channel protein type 1 subunit alpha (Mus musculus, UniProt A2APX8). Put plainly: Inhibition of mouse NaV1.1 channel by two-electrode voltage-clamp method.
Data set [16] addresses Sodium channel protein type 4 subunit alpha (Mus musculus, UniProt Q9ER60). As to the kind of experiment: Inhibition of mouse NaV1.4 channel by two-electrode voltage-clamp method.
The target in data set [17] is T1, Sodium channel protein type 9 subunit alpha. As to the kind of experiment: Inhibition of human NaV1.7 channel by patch clamp electrophysiology assay.
In data set [18] the target is Sodium channel protein type 3 subunit alpha (Rattus norvegicus, UniProt P08104). Put plainly: Inhibition of rat NaV1.3 channel.
In data set [19] the target is Sodium channel protein type 2 subunit alpha (Rattus norvegicus, UniProt P04775). As to the kind of experiment: Inhibition of rat NaV1.2 channel.
Data set [20] has as its target Sodium channel protein type 4 subunit alpha (Rattus norvegicus) (UniProt P15390). Put plainly: Inhibition of rat NaV1.4 channel at 1 uM relative to control.
In data set [21] the target is NaV1.5 (sodium channel protein type 5 subunit alpha) (Rattus norvegicus, UniProt P15389). As to the kind of experiment: Inhibition of rat NaV1.5 channel at 1 uM relative to control.
Data set [22] in a line: Selectivity ratio of IC50 for rat NaV1.4 channel expressed in Xenopus laevis oocytes to IC50 for mouse NaV1.6 channel expressed in Xenopus laevis oocytes. It counts as cell-based.
A short description of data set [23]: Selectivity ratio of IC50 for human NaV1.7 channel expressed in Xenopus laevis oocytes to IC50 for mouse NaV1.6 channel expressed in Xenopus laevis oocytes. It counts as cell-based.
Data set [24] is described as follows: Selectivity ratio of IC50 for rat NaV1.2 channel expressed in Xenopus laevis oocytes to IC50 for mouse NaV1.6 channel expressed in Xenopus laevis oocytes. It is filed as cell-based.
Data set [25] can be described thus: Selectivity ratio of IC50 for rat NaV1.3 channel expressed in Xenopus laevis oocytes to IC50 for mouse NaV1.6 channel expressed in Xenopus laevis oocytes. It is filed as cell-based.
The test system of a further data set is Mus musculus. As to the kind of experiment: Toxicity in mouse administered 15 to 20 mins. To be noted: in vivo. It counts as organism-based.

T1 sequence (Q15858 whole entry): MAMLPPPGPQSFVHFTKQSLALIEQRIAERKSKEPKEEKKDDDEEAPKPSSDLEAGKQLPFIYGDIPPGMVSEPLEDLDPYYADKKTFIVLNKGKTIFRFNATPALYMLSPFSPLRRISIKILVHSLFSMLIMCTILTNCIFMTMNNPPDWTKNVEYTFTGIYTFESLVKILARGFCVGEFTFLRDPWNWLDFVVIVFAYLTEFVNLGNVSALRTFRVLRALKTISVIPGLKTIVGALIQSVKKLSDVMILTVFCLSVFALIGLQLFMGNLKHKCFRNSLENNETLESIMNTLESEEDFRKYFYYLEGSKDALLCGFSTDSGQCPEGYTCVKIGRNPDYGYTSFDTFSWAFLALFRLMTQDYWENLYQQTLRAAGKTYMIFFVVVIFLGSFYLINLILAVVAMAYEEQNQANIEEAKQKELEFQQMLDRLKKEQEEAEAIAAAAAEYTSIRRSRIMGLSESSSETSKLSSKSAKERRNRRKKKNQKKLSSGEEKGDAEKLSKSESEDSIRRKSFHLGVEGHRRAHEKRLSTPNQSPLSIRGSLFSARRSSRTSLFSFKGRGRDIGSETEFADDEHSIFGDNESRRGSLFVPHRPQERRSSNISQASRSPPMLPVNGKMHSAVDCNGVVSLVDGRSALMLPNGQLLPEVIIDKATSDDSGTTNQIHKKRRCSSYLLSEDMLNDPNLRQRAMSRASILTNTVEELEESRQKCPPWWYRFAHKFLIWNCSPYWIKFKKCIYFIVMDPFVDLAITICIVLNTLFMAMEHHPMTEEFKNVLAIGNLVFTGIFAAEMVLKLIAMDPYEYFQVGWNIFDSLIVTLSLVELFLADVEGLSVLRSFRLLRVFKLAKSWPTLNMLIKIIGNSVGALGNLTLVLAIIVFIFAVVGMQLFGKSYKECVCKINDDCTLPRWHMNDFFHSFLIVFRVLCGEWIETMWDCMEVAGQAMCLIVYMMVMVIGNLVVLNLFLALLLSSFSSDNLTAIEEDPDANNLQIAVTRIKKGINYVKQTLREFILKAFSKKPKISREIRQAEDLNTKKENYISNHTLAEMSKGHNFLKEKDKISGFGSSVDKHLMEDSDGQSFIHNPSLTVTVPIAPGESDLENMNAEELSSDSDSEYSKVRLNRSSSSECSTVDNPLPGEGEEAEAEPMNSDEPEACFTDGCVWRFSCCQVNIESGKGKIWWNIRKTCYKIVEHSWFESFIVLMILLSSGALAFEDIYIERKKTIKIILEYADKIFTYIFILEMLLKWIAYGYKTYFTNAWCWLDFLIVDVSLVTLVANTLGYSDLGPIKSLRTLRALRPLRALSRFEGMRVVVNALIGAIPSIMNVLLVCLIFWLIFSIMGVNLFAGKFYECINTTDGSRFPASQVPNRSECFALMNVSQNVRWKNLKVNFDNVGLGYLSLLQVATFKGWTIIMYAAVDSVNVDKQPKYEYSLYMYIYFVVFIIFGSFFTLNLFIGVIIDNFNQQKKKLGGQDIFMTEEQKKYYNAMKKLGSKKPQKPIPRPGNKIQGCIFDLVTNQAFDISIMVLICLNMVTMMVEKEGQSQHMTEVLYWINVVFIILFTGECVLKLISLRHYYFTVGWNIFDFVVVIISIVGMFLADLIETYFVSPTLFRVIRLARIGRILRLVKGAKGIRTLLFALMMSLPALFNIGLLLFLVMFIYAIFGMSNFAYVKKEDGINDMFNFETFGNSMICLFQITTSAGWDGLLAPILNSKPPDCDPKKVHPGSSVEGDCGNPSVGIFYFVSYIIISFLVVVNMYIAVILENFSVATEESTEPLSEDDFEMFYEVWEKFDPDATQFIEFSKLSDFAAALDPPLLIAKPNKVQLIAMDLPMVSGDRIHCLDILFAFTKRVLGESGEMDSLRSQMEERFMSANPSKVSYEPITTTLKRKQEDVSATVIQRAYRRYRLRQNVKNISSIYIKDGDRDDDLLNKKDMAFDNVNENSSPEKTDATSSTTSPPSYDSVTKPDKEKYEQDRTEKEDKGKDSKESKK

`COc1ccc(C(=O)O[C@H]2CC[C@@]3(C)[C@@H]4CC[C@H]5[C@]6(O)C[C@H](O)[C@@]7(O)[C@@H](CN8C[C@@H](C)CC[C@H]8[C@@]7(C)O)[C@]6(O)C[C@@]53O[C@]24O)cc1OC` [VERATRIDINE] returned an LD50 in [1] of 9 mg/kg.
Consider `CCCOc1ncccc1-c1cc(C(=O)NS(C)(=O)=O)ccc1Oc1ccc(Cl)cc1`, for which the pIC50 in [2] is 7.85.
`Cc1ccc(OCC(C)C)c(-c2cccc([C@@H]3CC[C@]4(CCN(C)C4=O)N3)c2F)c1`: the pIC50 in data set [3] was 6.60.
`O=C(Nc1ccc(S(=O)(=O)Nc2nccs2)cc1)C(c1ccccc1)c1ccccc1`: the pIC50 in data set [4] was below 5.00; in data set [5] it was 6.62; in data set [6] it was below 5.00; in data set [7] it was below 5.00; in [8], above 7.70; in data set [9], below 5.00. Moreover, the pIC50 was above 7.70 in [10] and below 5.00 in data set [11].
Take `Cc1cc(-c2ccc(C(F)(F)F)cc2)nc([C@@H]2CC[C@]3(CCN(C)C3=O)N2)n1`: the pIC50 in [3] was 5.70.
With `N=C(N)NCCC[C@@H]1NC(=O)[C@H](CO)NC(=O)[C@H](Cc2cnc[nH]2)NC(=O)[C@H](CC(=O)O)NC(=O)[C@H](CCCNC(=N)N)NC(=O)[C@@H]2CSSC[C@H](N)C(=O)N[C@H]3CSSC[C@H](NC1=O)C(=O)N[C@H](C(=O)O)CSSC[C@H](NC(=O)[C@H](CC(N)=O)NC3=O)C(=O)N[C@@H](CO)C(=O)N[C@@H](CO)C(=O)N[C@@H](CCCCN)C(=O)N[C@@H](Cc1c[nH]c3ccccc13)C(=O)N2`, the pIC50 in [12] was 6.62; in data set [16], 7.05. The pKd is 8.30 in data set [13], 6.54 in [14] and 6.54 in data set [15].
For the molecule `CC[C@H](C)[C@H](NC(=O)[C@H](CCC(=O)O)NC(=O)[C@H](Cc1ccc(O)cc1)NC(=O)[C@H](CCCCN)NC(=O)[C@H](CS)NC(=O)[C@H](Cc1c[nH]c2ccccc12)NC(=O)[C@H](CCCNC(=N)N)NC(=O)[C@H](Cc1cnc[nH]1)NC(=O)[C@H](CCCCN)NC(=O)[C@H](CCCNC(=N)N)NC(=O)[C@H](CO)NC(=O)[C@H](CS)NC(=O)[C@@H](NC(=O)[C@H](CC(C)C)NC(=O)[C@H](CC(N)=O)NC(=O)[C@H](CO)NC(=O)[C@H](CO)NC(=O)[C@H](CCCCN)NC(=O)[C@H](CS)NC(=O)[C@H](CS)NC(=O)[C@H](CCC(N)=O)NC(=O)[C@H](CC(=O)O)NC(=O)[C@H](CC(N)=O)NC(=O)[C@H](CO)NC(=O)[C@@H]1CCCN1C(=O)[C@H](CC(N)=O)NC(=O)[C@H](CS)NC(=O)CNC(=O)[C@H](CCCCN)NC(=O)CNC(=O)[C@H](Cc1ccccc1)NC(=O)CNC(=O)[C@H](CC(C)C)NC(=O)[C@H](CS)NC(=O)[C@@H](N)CCC(=O)O)C(C)C)C(N)=O`, the pIC50 was 7.68 in data set [17], 6.43 in data set [18] and 7.44 in [19]. The inhibition in data set [20] turned out to be 7.3%. The same molecule had an inhibition at 1 µM in [21] of 0%.
For the molecule `N=C1N[C@H]2OC3C4(N1)C2[C@H]1O[C@]3(O)OC([C@H]4O)[C@]1(O)CO`, the Ratio IC50 was 127 in data set [22], 163 in [23], 161 in data set [24] and 44 in data set [25].
For the molecule `CN1CC[C@]2(CC[C@@H](c3cc(-c4cccc(OC(F)(F)F)c4)ccn3)N2)C1=O`, in data set [3], the pIC50 was 6.60.
Turning to `Nc1nc2cc(-c3cc(Cl)ccc3Oc3cc(F)c(S(=O)(=O)Nc4ncns4)cc3F)ccc2[nH]1`, the pIC50 in [7] is 7.52; in [9], below 5.00.
For `O=S(=O)(Nc1ncns1)c1cc(F)c(OC[C@@H]2CNCC[C@H]2c2ccc(Cl)c(F)c2)cc1F`, the pIC50 in [9] was below 5.00.
`CC1=CN=C(C)C1C(=O)O[C@@H](C)C1=CC[C@@]23OCCN(C)C[C@@]12C[C@@H](O)[C@]12O[C@@]4(O)CC[C@@]1(C)[C@H](CC=C32)C4` (stereo partly specified) displayed a median lethal dose (LD50) in the data set on Mus musculus of 0.002 mg/kg.
